Data as given in PubChem BioAssay (NCI).
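Where inhibition never reached the appropriate level, the endpoint shown equals the highest concentration tested. Otherwise, values were interpolated linearly from a five-concentration, 48-hour dose response in 96-well plates. GI50 marks 50% less growth. TGI is the concentration that stops growth completely.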

Columns and labels:
Assay in all cases: NCI tumour cell line growth inhibition, 48 h
[1] = system: A549 NSCLC
[2] = system: BT-549 breast
[3] = system: DU-145 prostate
[4] = system: MALME-3M melanoma
[5] = system: RXF 393 renal
[6] = system: SF-268 CNS
[7] = system: SF-295 CNS
[8] = system: SK-MEL-2 melanoma
[9] = system: SNB-19 CNS
[10] = system: SW-620 colon

## O=c1c2ccccc2n2n1CC(O)C2 (centres undefined)
[1]
  TGI: > 100 µM
[2]
  GI50: > 100 µM
  TGI: > 100 µM
[3]
  GI50: > 100 µM
  TGI: > 100 µM
[4]
  TGI: > 100 µM
[5]
  TGI: > 100 µM
[6]
  TGI: > 100 µM
[7]
  TGI: > 100 µM
[8]
  TGI: > 100 µM
[9]
  TGI: > 100 µM
[10]
  TGI: > 100 µM

## C[C@@H]1CC[C@@H]2[C@@H]1[C@H](OC(=O)/C=C/c1ccccc1)[C@]1(C3CCCCC3)C[C@@H](NC(=O)CO)[C@@]2(C)O1
[1]
  GI50: 21 µM
  TGI: 37 µM
[2]
  GI50: 13.2 µM
  TGI: 26.7 µM
[3]
  GI50: 18.4 µM
  TGI: 32.9 µM
[4]
  GI50: 16.3 µM
  TGI: 33 µM
[5]
  GI50: 3.29 µM
  TGI: 13.8 µM
[6]
  GI50: 14.3 µM
  TGI: 30 µM
[7]
  GI50: 14.9 µM
  TGI: 28.4 µM
[8]
  GI50: 16.8 µM
  TGI: 32.8 µM
[9]
  GI50: 17.6 µM
  TGI: 32.3 µM
[10]
  GI50: 17.8 µM
  TGI: 34.1 µM

## CCN1C(NN)=NS(=O)(=O)c2ccccc21
[1]
  TGI: > 100 µM
[2]
  TGI: > 100 µM
[3]
  TGI: > 100 µM
[5]
  TGI: > 100 µM
[6]
  TGI: > 100 µM
[7]
  TGI: > 100 µM
[8]
  TGI: > 100 µM
[9]
  TGI: > 100 µM
[10]
  TGI: > 100 µM

## CCOC(=O)C1=C(O)CSC1=Nc1ccccc1
[1]
  TGI: > 100 µM
[4]
  TGI: > 100 µM
[6]
  TGI: > 100 µM
[7]
  TGI: > 100 µM
[8]
  TGI: > 100 µM
[9]
  TGI: > 100 µM
[10]
  TGI: > 100 µM

## O=C1N(c2ccccc2)C(=O)C2(SC=NN2Cc2ccccc2)N1c1ccccc1 (centres undefined)
[1]
  TGI: > 100 µM
[4]
  TGI: > 100 µM
[5]
  TGI: > 100 µM
[6]
  TGI: > 100 µM
[7]
  TGI: > 100 µM
[9]
  TGI: > 100 µM
[10]
  TGI: > 100 µM

## C[C@]12CCc3nonc3C1CC[C@@H]1C2CC[C@]2(C)NC(=O)CCC12 (some centres undefined)
[1]
  TGI: > 100 µM
[4]
  TGI: > 100 µM
[5]
  TGI: > 100 µM
[6]
  TGI: > 100 µM
[7]
  TGI: > 100 µM
[8]
  TGI: > 100 µM
[9]
  TGI: > 100 µM
[10]
  TGI: > 100 µM

## O=C1c2ccccc2C(=O)c2c(NCCNCCO)ccc(O)c21
[1]
  TGI: 11.2 µM
[4]
  TGI: 11.7 µM
[5]
  TGI: 7.92 µM
[6]
  TGI: 13.1 µM
[7]
  TGI: 15.8 µM
[8]
  TGI: 14.7 µM
[9]
  TGI: 14.2 µM
[10]
  TGI: 12.9 µM

## CCOC(=O)C1=C(C)NC2SC(=O)/C(=C\c3ccccc3O)N2C1c1ccccc1 (centres undefined)
[1]
  GI50: 27.2 µM
  TGI: > 100 µM
[2]
  GI50: 23.3 µM
  TGI: 59.8 µM
[3]
  GI50: 30.5 µM
  TGI: > 100 µM
[5]
  GI50: 19 µM
  TGI: 46.9 µM
[6]
  GI50: 29.7 µM
  TGI: > 100 µM
[7]
  GI50: 27.2 µM
  TGI: > 100 µM
[8]
  GI50: 22.2 µM
  TGI: 59.3 µM
[9]
  GI50: 31.5 µM
  TGI: > 100 µM
[10]
  GI50: 38.5 µM
  TGI: > 100 µM

## COc1ccc(C(=O)C(C(=O)C(=O)Nc2ccc(Cl)c(Cl)c2)c2ccc(OC)cc2)cc1 (centres undefined)
[1]
  TGI: > 100 µM
[4]
  TGI: > 100 µM
[5]
  TGI: > 100 µM
[6]
  TGI: > 100 µM
[7]
  TGI: > 100 µM
[8]
  TGI: > 100 µM
[9]
  TGI: > 100 µM
[10]
  TGI: > 100 µM

## Cc1cc(C2=NNC(=O)Cc3cc4c(cc32)OCCO4)cc(C)c1N
[1]
  GI50: 3.2 µM
  TGI: > 100 µM
[2]
  GI50: 3.36 µM
  TGI: > 100 µM
[3]
  GI50: 3.84 µM
  TGI: > 100 µM
[6]
  GI50: 4.21 µM
  TGI: > 100 µM
[7]
  GI50: 0.47 µM
  TGI: 2.87 µM
[8]
  GI50: 3.42 µM
  TGI: > 100 µM
[9]
  GI50: 4.31 µM
  TGI: > 100 µM
[10]
  GI50: 0.965 µM
  TGI: > 100 µM

## Cc1c(C(=O)C/C(=N/NC(=O)C[n+]2ccccc2)C(=O)Nc2ccccc2)[n+](=O)c2ccccc2n1O
[1]
  TGI: > 100 µM
[4]
  TGI: > 100 µM
[5]
  TGI: > 100 µM
[6]
  TGI: > 100 µM
[7]
  TGI: > 100 µM
[8]
  TGI: > 100 µM
[9]
  TGI: > 100 µM
[10]
  TGI: > 100 µM

## O=c1cccccc1NCCCCCCNc1cccccc1=O
[1]
  TGI: > 100 µM
[4]
  TGI: > 100 µM
[6]
  TGI: > 100 µM
[7]
  TGI: > 100 µM
[8]
  TGI: > 100 µM
[9]
  TGI: > 100 µM
[10]
  TGI: > 100 µM

## CC(=O)O[C@]1(C)OC(=O)[C@@H](C)N1[N+](=O)[O-]
[1]
  TGI: > 100 µM
[4]
  TGI: > 100 µM
[5]
  TGI: > 100 µM
[7]
  TGI: > 100 µM
[8]
  TGI: > 100 µM
[9]
  TGI: > 100 µM
[10]
  TGI: > 100 µM

## C/C1=C/C2=CC(C)C[C@@H]2C(=O)[C@]2(C)C(=O)CC(C)(C)[C@H]2CC1=O (some centres undefined)
[1]
  TGI: > 50 µM
[2]
  TGI: > 50 µM
[3]
  TGI: > 50 µM
[4]
  TGI: > 50 µM
[6]
  TGI: > 50 µM
[7]
  TGI: > 50 µM
[8]
  TGI: > 50 µM
[9]
  TGI: > 50 µM
[10]
  TGI: > 50 µM

## CN[C@@H](C)[C@@H](N)c1ccccc1
[1]
  TGI: > 100 µM
[4]
  TGI: > 100 µM
[5]
  TGI: > 100 µM
[7]
  TGI: > 100 µM
[9]
  TGI: > 100 µM
[10]
  TGI: > 100 µM

## COc1ccc(C2=NN(C(=O)c3cc(OC)c(OC)c(OC)c3)C(c3ccc(Cl)cc3)C2)cc1OC (centres undefined)
[1]
  GI50: 4.03 µM
  TGI: > 100 µM
[2]
  GI50: 2.95 µM
  TGI: 71.6 µM
[3]
  GI50: 3.62 µM
  TGI: > 58.9 µM
[4]
  GI50: 3.95 µM
  TGI: 98.9 µM
[6]
  GI50: 2.66 µM
  TGI: 23.6 µM
[7]
  GI50: 0.565 µM
  TGI: > 100 µM
[8]
  GI50: 3.71 µM
  TGI: 63.6 µM
[9]
  GI50: 4.15 µM
  TGI: 44 µM
[10]
  GI50: 1.6 µM
  TGI: > 100 µM

## CC/C(=C(/CC)c1ccc([O-])cc1)c1ccc([O-])cc1.CC/C(=C(\CC)c1ccc([O-])cc1)c1ccc([O-])cc1.O=C([CH-]C(=O)c1ccccc1)c1ccccc1.O=C([CH-]C(=O)c1ccccc1)c1ccccc1.O=C([CH-]C(=O)c1ccccc1)c1ccccc1.O=C([CH-]C(=O)c1ccccc1)c1ccccc1.[Ti+4].[Ti+4]
[1]
  GI50: 18.9 µM
  TGI: 47.9 µM
[4]
  GI50: 30.9 µM
  TGI: > 100 µM
[5]
  GI50: 14.7 µM
  TGI: 42.3 µM
[6]
  GI50: 35.8 µM
  TGI: > 100 µM
[7]
  GI50: 19.9 µM
  TGI: 42.6 µM
[8]
  GI50: 25.8 µM
  TGI: 73.5 µM
[9]
  GI50: 22.6 µM
  TGI: 56.2 µM
[10]
  GI50: 21.4 µM
  TGI: 51.6 µM

## COc1c(NC(C)=O)cc(C)cc1NC(C)=O
[1]
  TGI: > 100 µM
[5]
  TGI: > 100 µM
[6]
  TGI: > 100 µM
[7]
  TGI: > 100 µM
[8]
  TGI: > 100 µM
[10]
  TGI: > 100 µM

## COC(=O)C1=C(C(=O)OC)C23CC1C1C(C(=O)OC)=C(C(=O)OC)C12C1C=CC3C2C(=O)OC(=O)C21 (centres undefined)
[1]
  TGI: > 100 µM
[4]
  TGI: > 100 µM
[5]
  TGI: > 100 µM
[6]
  TGI: > 100 µM
[7]
  TGI: > 100 µM
[8]
  TGI: > 100 µM
[9]
  TGI: > 100 µM
[10]
  TGI: > 100 µM

## CO/N=C(\C)c1cccc(Nc2cc(-c3ccccc3)nc3c(O)cccc23)c1
[1]
  GI50: 5.99 µM
  TGI: 21.8 µM
[2]
  GI50: 15.1 µM
  TGI: 55.1 µM
[3]
  GI50: 9.2 µM
  TGI: 28 µM
[4]
  GI50: 12.5 µM
  TGI: 35.4 µM
[5]
  GI50: 3.69 µM
  TGI: 14.9 µM
[7]
  GI50: 2.17 µM
  TGI: 5.55 µM
[8]
  GI50: 5.76 µM
  TGI: > 100 µM
[10]
  GI50: 4.5 µM
  TGI: 19.6 µM
